Holding throughout (format): cell-based, mouse
Data set [1] can be described thus: MTT assay for cell viability. As to conditions: mouse, RAW264.7 macrophage cells; 30 μM, 24 h, RAW264.7 cells. The procedure: The RAW 264.7 mouse macrophage cell line was obtained from the China Cell Line Bank (Beijing, China). Cells were cultured in complete medium (DMEM supplemented with 10% heat-inactivated FBS, 3 mM glutamine and antibiotics (100 U/mL penicillin and 100 U/mL streptomycin)) at 37 °C in a humidified incubator containing 5% CO2 and 95% air. […]
Cell viability studies induced by synthesised compounds were evaluated by 3-(4,5-dimethylthiazol-2-yl)-2,5-diphenyltetrazolium bromide (MTT) assay. RAW264.7 macrophages were seeded in 96-well plates at a density of 5 × 10^5 cells/mL in complete medium and incubated for 24 h (100 µL/well). Then the cells were treated with different concentrations of synthesised compounds for 24 h. 150 µL MTT (5 g/L in PBS) was added to each well and the cells were further incubated for 4 h. The supernatant was removed and the cells were lysed with 150 µL/well DMSO. The optical density was measured at 570 nm on a microplate reader (Thermo Scientific, MA, USA).
For orientation: Tetrazolium dyes change colour on reduction, which living cells bring about.

Data set [2] concerns iNOS protein expression in LPS-induced RAW 264.7 cells. Description: Western blot, iNOS protein expression. The procedure:
(§1) The cells were collected and washed three times with ice-cold PBS. The cells were treated with a cell lysis buffer [50 mM Tris (pH 7.6), 150 mM NaCl, 5 mM EDTA (pH 8.0), 0.6% NP-40, 1 mM Na3VO4, 20 mM β-glycerophosphate, 1 mM phenylmethylsulfonyl fluoride, 2 mM p-nitrophenyl phosphate, and 1:25 Complete Mini Protease Inhibitor cocktail (Boehringer, Mannheim,Germany)] and kept on ice for 30 min. The cell lysates were centrifuged (12,000 g at 4 °C) for 5 min to obtain a cytosolic fraction. The protein concentration was determined by BCA protein assay kit (Beyotime, Haimen, China). Aliquots of the lysates were separated on 10% sodium dodecyl sulphate (SDS)-polyacrylamide gel electrophoresis (PAGE) and then electro blotted onto a polyvinylidene difluoride (PVDF) membrane. The blots were blocked with 5% (w/v) non-fat dry milk for 2 h at 37 °C, followed by incubation with specific primary antibody at 4 °C overnight. Blots were washed with Tween 20/Tris-buffered saline [TTBS, 20 mM Tris–HCl buffer, pH 7.6, containing 137 mM NaCl and 0.05% (vol/vol) Tween 20] and incubated with a peroxidase-conjugated secondary antibody for 1 h. Blots were again washed with TTBS and the immune active proteins were detected using ECL plus (Thermo, USA). […] Results are expressed as the relative ratio of the specific band compared with the internal reference.
For orientation: A western blot detects proteins with antibodies after separation by electrophoresis.

The test system of data set [3] is TNF-α production in LPS-stimulated RAW264.7 cells. Description: Cytokine production assay (ELISA), TNF-α. The procedure:
(§2) RAW264.7 cells were seeded at 3 × 10^5 cells/well in a 48-well microplate and incubated overnight.The cells were pre-treated with the different concentrations of the test compunds (3, 7.5, 10 or 30 µM) for 30 min before the stimulation with LPS (1 µg/mL). According to the protocol of the manufacturer, supernatants were harvested at the 24th hour for the assay of TNF-α or IL-6 with ELISA kits (BD Biosciences, San Diego, CA, USA). Briefly, 100 µL of biotinylated antibody reagent and the culture supernatants were added to anti-mouse TNF-α or IL-6 precoated 96-well plates, and the plates were incubated for 2 h at RT. The plate was washed with a washing buffer and subsequently incubated with 100 µL of the streptavidin-HRP solution for 1 h at RT. The plate was washed, and incubated with 100 µL of TMB substrate solution for 30 min at RT in the dark. The reaction was stopped by adding 50 µL of stop solution, and then the absorbance was measured at 450 nm by a plate reader. A standard curve was produced for each assay plate using serially diluted recombinant IL-6.

For data set [4], the system named is phosphorylation of p38 in RAW 264.7 cells. Description: Western blot, LPS-induced phosphorylation of p38. The note with it: 30 µM, p < .01. The procedure: RAW 264.7 cells (5 × 10^5 cells/well) plated onto 6-well plates were incubated for 24 h and treated with 7.5, 15.0 or 30.0 µM of compound 6p for 30 min and then stimulated with […] of LPS for 24 h. The cells were collected and washed three times with ice-cold PBS. The cells were treated with a cell lysis buffer [50 mM Tris (pH 7.6), 150 mM NaCl, 5 mM EDTA (pH 8.0), 0.6% NP-40, 1 mM Na3VO4, 20 mM β-glycerophosphate, 1 mM phenylmethylsulfonyl fluoride, 2 mM p-nitrophenyl phosphate, and 1:25 Complete Mini Protease Inhibitor cocktail (Boehringer, Mannheim,Germany)] and kept on ice for 30 min. The cell lysates were centrifuged (12,000 g at 4 °C) for 5 min to obtain a cytosolic fraction. The protein concentration was determined by BCA protein assay kit (Beyotime, Haimen, China). Aliquots of the lysates were separated on 10% sodium dodecyl sulphate (SDS)-polyacrylamide gel electrophoresis (PAGE) and then electro blotted onto a polyvinylidene difluoride (PVDF) membrane. The blots were blocked with 5% (w/v) non-fat dry milk for 2 h at 37 °C, followed by incubation with specific primary antibody at 4 °C overnight. […] Blots were again washed with TTBS and the immune active proteins were detected using ECL plus (Thermo, USA). […] Results are expressed as the relative ratio of the specific band compared with the internal reference.

In data set [5] the test system is IL-6 production in LPS-stimulated RAW264.7 cells. Description: Cytokine production assay (ELISA), IL-6. Here is the method: as §2
(In an ELISA, binding on a coated surface is turned into a signal by an enzyme label.)

Data set [6] has as its system COX-2 protein expression in LPS-induced RAW 264.7 cells. The experiment in a line: Western blot, COX-2 protein expression. As to conditions: 15 µM, LPS 1 µg/mL, p < .001. Here is the method:
as §1

Where [7] appears, read: LPS 1 µg/mL, 24 h, different concentrations.

We go through 1 compound from PMC6853232, “Discovery and evaluation of novel synthetic 5-alkyl-4-oxo-4,5-dihydro-[1,2,4]triazolo[4,3-a]quinoxaline-1-carbox-amide derivatives as anti-inflammatory agents” (Journal of Enzyme Inhibition and Medicinal Chemistry, 2019).

For orientation: viability means a per cent measure of how many cells are alive, often set against a control. A low value points to a greater loss of cells.

On to `COc1cc(Cn2c(=O)c3nnc(C(N)=O)n3c3ccccc32)cc(OC)c1OC` [6p, 5-(3,4,5-trimethoxybenzyl)-4-oxo-4,5-dihydro-[1,2, 4]triazolo[4,3-a]quinoxaline-1-carboxamide], for which the viability at 24 h, 30 µM in data set [1] turned out to be 83.7 ± 1.53%. In addition, the “inhibition of iNOS protein expression” value in data set [2] (30 µM, LPS 1 µg/mL, p < .001) was 39.89%. In addition, in data set [2] (7.5, 15 and 30 µM), the “iNOS protein expression, dose dependence” value is listed as “dose-dependent manner”. Besides, the “production of TNF-α” value in data set [3] (3 µM, p < .001) was “significantly inhibited”. Moreover, the “LPS-induced increase in TNF-α levels” value in data set [3] (setting [7]) was “inhibited in a concentration-dependent manner”. The “phosphorylation of p38” value in data set [4] is “markedly diminished”. For the same compound, the “production of IL-6” value in data set [5] (3 µM, p < .001) is “significantly inhibited”. Also, the “LPS-induced increase in IL-6 levels” value in data set [5] (setting [7]) is “inhibited in a concentration-dependent manner”. In addition, the “inhibition of COX-2 protein expression” value in data set [6] is listed as 53.44%.
